Laboratory results taken from paper PMC12534982 (Journal of Experimental & Clinical Cancer Research : CR, 2025).

Columns and labels:
DHODH R136C = biological target: T1, DHODH R136C (Homo sapiens, UniProt Q02127, R135C); experiment: In vitro DHODH enzyme activity assay; assay type: biochemical; conditions: 1 mM DHO
T1 construct: made in house
Method: (§1) The assays to determine the inhibition constants of inhibitors of the recombinant DHODH enzymes are described in [28, 29].
(§2) The IC50 values were determined by fitting the equation V = V max/(1 + (I/IC50)^h) to the assay data using SigmaPlot14 (Systat Software Inc.). In this equation, V represents the measured enzyme activity, while V max indicates the maximum enzyme activity reached. I denotes the inhibitor concentration, and h describes the slope of the fitted curve.

[1] = biological target: T2, recombinant human DHODH (full-length wild-type) (Homo sapiens, UniProt Q02127); experiment: In vitro DHODH enzyme activity assay; assay type: biochemical; conditions: for IC50: 0.1 mM QD, mean ± SD (n = 4–6); for Ki: assuming pure competitive inhibition
T2 construct: The generation of recombinant enzymes (full-length wild-type); made in house
T2 sequence (Q02127 whole entry): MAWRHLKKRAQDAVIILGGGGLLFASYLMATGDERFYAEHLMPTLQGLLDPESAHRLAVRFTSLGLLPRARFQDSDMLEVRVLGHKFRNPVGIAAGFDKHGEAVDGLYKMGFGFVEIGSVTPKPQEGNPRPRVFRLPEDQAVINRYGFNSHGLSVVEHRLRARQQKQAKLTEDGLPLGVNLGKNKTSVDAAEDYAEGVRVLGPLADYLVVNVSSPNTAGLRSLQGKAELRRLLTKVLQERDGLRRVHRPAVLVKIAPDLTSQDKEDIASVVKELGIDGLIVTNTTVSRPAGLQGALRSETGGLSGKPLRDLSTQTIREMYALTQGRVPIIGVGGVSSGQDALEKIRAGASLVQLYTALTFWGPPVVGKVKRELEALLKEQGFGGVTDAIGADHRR
Method: as §1, §2

Δ29 DHODH (N-truncated) = biological target: T3, Δ29 DHODH (N-truncated) (Homo sapiens, UniProt Q02127); experiment: In vitro DHODH enzyme activity assay; assay type: biochemical; conditions: 1 mM DHO
T3 construct: N-terminal truncated form of human DHODH (Δ29), where the N-terminal transmembrane domain was removed; made in house
T3 sequence (Q02127 29-395, stated change not applied): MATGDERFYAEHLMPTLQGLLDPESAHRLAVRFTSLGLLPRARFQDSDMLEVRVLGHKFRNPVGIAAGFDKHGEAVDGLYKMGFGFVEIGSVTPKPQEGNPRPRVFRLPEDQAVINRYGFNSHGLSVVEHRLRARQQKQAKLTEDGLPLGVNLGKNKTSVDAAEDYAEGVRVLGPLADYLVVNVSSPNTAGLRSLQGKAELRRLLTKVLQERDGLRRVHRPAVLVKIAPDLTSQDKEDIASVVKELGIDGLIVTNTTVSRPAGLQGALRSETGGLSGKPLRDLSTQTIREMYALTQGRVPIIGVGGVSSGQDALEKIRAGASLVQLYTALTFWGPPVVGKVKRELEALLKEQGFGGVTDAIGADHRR
Method: as §1, §2

colorectal cancer cells = experiment: Annexin V-FITC/PI double staining; assay type: cell-based, human; conditions: 25 µM
Method: Cells were harvested as described in the flow cytometry-based cell cycle analysis section. The supernatant was discarded, and the cells were resuspended in 100 μL of cold Annexin buffer (pH 7.4) composed of 18 mL distilled water, 5.5 mg CaCl2, 164 mg NaCl, and 2 mL of 100 mM HEPES. A 1:1 mixture of Annexin V (#130–097-928; Miltenyi Biotec) and propidium iodide (PI, 1 mg/mL) was added to all tubes and incubated in the dark at room temperature for 20 min. Annexin buffer was added, and the samples were analyzed using a CytoFLEX within 1 h. CytExpert and FlowJo software were utilized for data acquisition and analysis.

[2] = system: colorectal cancer cell lines; experiment: DNA fiber assays; assay type: cell-based, human
Method: Cancer cells were pulse-labeled with 20 µM iododeoxyuridine (IdU) in the dark at 37 °C for 20 min. Subsequently, the cells were washed twice with PBS and then pulse-labeled with 200 µM chlorodeoxyuridine (CldU) in the presence or absence of NK-A 17E-233I (25 µM) in the dark at 37 °C for 1 h. To assess fork restart in cancer cells following treatment, cells were pulse-labeled with 20 µM IdU for 10 min, after which NK-A 17E-233I (25 µM) was either added or no treatment was administered, followed by an additional 1 h of incubation. The cells were then washed twice with PBS and pulse-labeled with 200 µM CldU for 30 min. Following the labeling procedure, cells were washed twice with PBS, scrapped into PBS containing 0.1% Bovine Serum Albumin (BSA), pelleted, and resuspended in PBS with 0.1% BSA at a final concentration of 1.5 × 10^3 cells/µL. A volume of 2.5 µL of the cell suspension was spotted onto a positively charged slide and lysed with 7.5 µL of a spreading buffer (200 mM Tris–HCl, pH 7.5; 50 mM EDTA; 0.5% SDS) at room temperature for 8 min. The slides were then tilted at 45 ° to facilitate DNA spreading. After air-drying, the slides were fixed with ice-cold methanol/acetic acid (3:1) for 5 min, air-dried again, and stored at 4 °C.
The slides were rehydrated with PBS, denatured with 2.5 M HCl for 1 h, washed twice with PBS, and blocked with a blocking buffer (3% BSA; 0.1% Triton X-100 in PBS) for 40 min. Subsequently, the slides were incubated with a primary antibody mixture, including mouse anti-5-Bromo-2'-Deoxyuridine (anti-BrdU) recognizing IdU (#347580; Becton Dickinson, dilution 1:250) and rat anti-BrdU recognizing CldU (#6326; Abcam, dilution 1:250), diluted in a blocking buffer within a dark humid chamber at room temperature for 2.5 h.
For silencing, siNT (non-target, D-001810–10-20 On-TARGET plus Non-targeting pool, Dharmacon) (Horizon Discovery, Waterbeach, UK) and siPOLD2 (Smart pool, ON-TARGETplus Human POLD2 (5425) siRNA oligos directed against human POLD2), were used to transfect cells using RNAiMax Lipofectamine Reagent Mix (Life Technologies) according to the manufacturer’s protocol. 48 h post-transfection, the cells were harvested to evaluate the efficiency of gene silencing, which was estimated to be approximately 90% based on western blot analysis, for further experimental applications.
Afterwards, the slides were washed three times with PBS for 5 min each and incubated with secondary antibodies, anti-mouse Alexa Fluor 594 and anti-rat Alexa Fluor 488 (#A11005 and #A11006, respectively; Invitrogen, dilution 1:250), in a blocking buffer at room temperature in a dark humid chamber for 1 h. After three additional washes with PBS and air-drying, the slides were mounted with ProLong Gold Antifade Reagent (#P36930; Invitrogen) and stored at 4 °C until imaging. Images were acquired using an AF6000 Leica Fluorescence microscope equipped with an HCX PL APO 63x (NA = 1.4) oil objective. ImageJ/Fiji software was utilized to measure the fibers with the segmented line tool.

T1 sequence (Q02127 whole entry R135C): as the sequence (Q02127 whole entry) above, with R135C counted along it

In the case of `COc1cc(C)c(Oc2cc(C)cc(O)c2O)c(O)c1` [NK-A 17E-233I], the IC50 (DHODH R136C; mean ± SD (n = 3)) is reported as 48.6 ± 30.8 µM, the “average of the fitted slopes” value (DHODH R136C; ± SD) is reported as 0.6 ± 0.2 and the “mode of inhibition with respect to DHO” value [1] is reported as “competitive inhibitor”. The IC50 ([1]; 0.1 mM DHO) was 28.9 ± 14.5 µM, the IC50 ([1]; 1 mM DHO) was 98.3 ± 42.6 µM and the “fold increase in the IC50 value with increasing concentrations of DHO” value ([1]; 1 mM vs 0.1 mM DHO) was 3.4 fold. The Ki ([1]; derived from the IC50 at 0.1 mM DHO) was 3.9 µM, the Ki ([1]; derived from the IC50 at 1 mM DHO) was 1.5 µM and the IC50 (Δ29 DHODH (N-truncated); mean ± SD (n = 3)) was 99.1 ± 47.8 µM. For the same compound, the “average of the fitted slopes” value (Δ29 DHODH (N-truncated); ± SD) was 1 ± 0.8, the “late-apoptotic cells (Annexin V-FITC)” value (colorectal cancer cells; 48 h) was “significantly increased” and the “apoptosis with pan-caspase inhibitor Z-VAD-FMK” value (colorectal cancer cells; Z-VAD-FMK 10 µM, 24 h) was “abolished its activity”. The “speed of replication forks (CldU tracks)” value ([2]; 25 µM, 1 h) was “significantly reduced”, the “rescue of replication fork speed by physiological uridine” value ([2]; 25 µM, uridine 10 µM) was “did not demonstrate any discernible rescue” and the “rescue of DNA-damaging effects by excess uridine” value ([2]; 25 µM, uridine 200 µM) was “rescued the DNA-damaging effects”. The “replication fork progression after washout (fork restart)” value ([2]; LS174T, 25 µM, 1 h then washout) was “continued to demonstrate a diminished progression rate” and the “speed of replication forks (CldU tract length)” value ([2]; SW620, 25 µM, 1 h) was “significantly diminished”.
